Test results from PubChem BioAssay AID2060907 (Molecular Pharmacology Branch, DTP, NCI, 2025).
Blank lines part the entries; values can stand above or below the compound they belong to.

Test system: 388556-164-R-J1-PDC complex spheroid viability
Assay: Anticancer human tumor 388556-164-R-J1-PDC patient-derived colon adenocarcinoma cell line growth inhibition [RAS]
Details: for IC50: curve of first compound; for viability, T/C: stronger effect = lower value
Procedure, shortened: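 Tumour cells grown as complex spheroids with HUVEC endothelial cells and mesenchymal stem cells, treated with RAS pathway inhibitor combinations. Each agent spans half-log steps from near clinical Cmax, or 10 microM where Cmax is unknown.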

[1] = second compound 0.00316 µM, first compound 0.0316 µM
[2] = second compound 0.00316 µM, first compound 0.1 µM
[3] = second compound 0.00316 µM, first compound 0.316 µM
[4] = second compound 0.00316 µM, first compound 1 µM
[5] = second compound 0.01 µM, first compound 0.0316 µM
[6] = second compound 0.01 µM, first compound 0.1 µM
[7] = second compound 0.01 µM, first compound 0.316 µM
[8] = second compound 0.01 µM, first compound 1 µM
[9] = second compound 0.0316 µM, first compound 0.0316 µM
[10] = second compound 0.0316 µM, first compound 0.1 µM
[11] = second compound 0.0316 µM, first compound 0.316 µM
[12] = second compound 0.0316 µM, first compound 1 µM
[13] = second compound 0.1 µM, first compound 0.0316 µM
[14] = second compound 0.1 µM, first compound 0.1 µM
[15] = second compound 0.1 µM, first compound 0.316 µM
[16] = second compound 0.1 µM, first compound 1 µM
[17] = second compound 0.316 µM, first compound 0.0316 µM
[18] = second compound 0.316 µM, first compound 0.1 µM
[19] = second compound 0.316 µM, first compound 0.316 µM
[20] = second compound 0.316 µM, first compound 1 µM
[21] = second compound 1 µM, first compound 0.0316 µM
[22] = second compound 1 µM, first compound 0.1 µM
[23] = second compound 1 µM, first compound 0.316 µM
[24] = second compound 1 µM, first compound 1 µM
[25] = second compound 0.00316 µM, first compound 0.000949 µM
[26] = second compound 0.00316 µM, first compound 0.003 µM
[27] = second compound 0.00316 µM, first compound 0.00949 µM
[28] = second compound 0.00316 µM, first compound 0.03 µM
[29] = second compound 0.00316 µM, first compound 0.0949 µM
[30] = second compound 0.00316 µM, first compound 0.3 µM
[31] = second compound 0.01 µM, first compound 0.000949 µM
[32] = second compound 0.01 µM, first compound 0.003 µM
[33] = second compound 0.01 µM, first compound 0.00949 µM
[34] = second compound 0.01 µM, first compound 0.03 µM
[35] = second compound 0.01 µM, first compound 0.0949 µM
[36] = second compound 0.01 µM, first compound 0.3 µM
[37] = second compound 0.0316 µM, first compound 0.000949 µM
[38] = second compound 0.0316 µM, first compound 0.003 µM
[39] = second compound 0.0316 µM, first compound 0.00949 µM
[40] = second compound 0.0316 µM, first compound 0.03 µM
[41] = second compound 0.0316 µM, first compound 0.0949 µM
[42] = second compound 0.0316 µM, first compound 0.3 µM
[43] = second compound 0.1 µM, first compound 0.000949 µM
[44] = second compound 0.1 µM, first compound 0.003 µM
[45] = second compound 0.1 µM, first compound 0.00949 µM
[46] = second compound 0.1 µM, first compound 0.03 µM
[47] = second compound 0.1 µM, first compound 0.0949 µM
[48] = second compound 0.1 µM, first compound 0.3 µM
[49] = second compound 0.316 µM, first compound 0.000949 µM
[50] = second compound 0.316 µM, first compound 0.003 µM
[51] = second compound 0.316 µM, first compound 0.00949 µM
[52] = second compound 0.316 µM, first compound 0.03 µM
[53] = second compound 0.316 µM, first compound 0.0949 µM
[54] = second compound 0.316 µM, first compound 0.3 µM
[55] = second compound 1 µM, first compound 0.000949 µM
[56] = second compound 1 µM, first compound 0.003 µM
[57] = second compound 1 µM, first compound 0.00949 µM
[58] = second compound 1 µM, first compound 0.03 µM
[59] = second compound 1 µM, first compound 0.0949 µM
[60] = second compound 1 µM, first compound 0.3 µM
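Further: spheroids exposed to compound for 7 days before readout.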
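Wherever viability, T/C is given: 100% = DMSO vehicle control luminescence.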

IC50 (second compound 0.00316 µM): > 10000 nM
IC50 (second compound 0.01 µM): > 10000 nM
IC50 (second compound 0.0316 µM): > 10000 nM
IC50 (second compound 0.1 µM): > 10000 nM
IC50 (second compound 0.316 µM): > 10000 nM
IC50 (second compound 1 µM): > 10000 nM
Structure (SMILES): CC(=O)OC12COC1CC(O)C1(C)C(=O)C(O)C3=C(C)C(OC(=O)C(O)C(NC(=O)OC(C)(C)C)c4ccccc4)CC(O)(C(OC(=O)c4ccccc4)C21)C3(C)C (stereo not drawn) + C=CC(=O)N1CCN(c2nc(OCC3CCCN3C)nc3c(F)c(-c4nc(N)cc(C)c4C(F)(F)F)c(Cl)cc23)C(C)C1
viability, T/C [1]: 88.1%
viability, T/C [2]: 80.7%
viability, T/C [3]: 77%
viability, T/C [4]: 75.7%
viability, T/C (second compound 0.00316 µM, first compound 3.16 µM): 74.6%
viability, T/C (second compound 0.00316 µM, first compound 10 µM): 71.2%
viability, T/C [5]: 82.8%
viability, T/C [6]: 78.8%
viability, T/C [7]: 70.5%
viability, T/C [8]: 80.3%
viability, T/C (second compound 0.01 µM, first compound 3.16 µM): 79.4%
viability, T/C (second compound 0.01 µM, first compound 10 µM): 71.8%
viability, T/C [9]: 84.4%
viability, T/C [10]: 83.4%
viability, T/C [11]: 84.7%
viability, T/C [12]: 76.9%
viability, T/C (second compound 0.0316 µM, first compound 3.16 µM): 76%
viability, T/C (second compound 0.0316 µM, first compound 10 µM): 71.3%
viability, T/C [13]: 78.3%
viability, T/C [14]: 69.5%
viability, T/C [15]: 72.4%
viability, T/C [16]: 74%
viability, T/C (second compound 0.1 µM, first compound 3.16 µM): 78.4%
viability, T/C (second compound 0.1 µM, first compound 10 µM): 73.2%
viability, T/C [17]: 78.6%
viability, T/C [18]: 81.4%
viability, T/C [19]: 79.1%
viability, T/C [20]: 74.5%
viability, T/C (second compound 0.316 µM, first compound 3.16 µM): 72.7%
viability, T/C (second compound 0.316 µM, first compound 10 µM): 76.6%
viability, T/C [21]: 87.6%
viability, T/C [22]: 79.3%
viability, T/C [23]: 74.9%
viability, T/C [24]: 82.8%
viability, T/C (second compound 1 µM, first compound 3.16 µM): 76%
viability, T/C (second compound 1 µM, first compound 10 µM): 70.5%

IC50 (second compound 0.00316 µM): > 300 nM
IC50 (second compound 0.01 µM): > 300 nM
IC50 (second compound 0.0316 µM): > 300 nM
IC50 (second compound 0.1 µM): > 300 nM
IC50 (second compound 0.316 µM): > 300 nM
IC50 (second compound 1 µM): > 300 nM
Structure (SMILES): CC1(C)CCC(Nc2ncc(C(F)(F)F)c(-c3c[nH]c4c(P(C)(C)=O)c(C#N)ccc34)n2)CN1 (stereo not drawn) + C=CC(=O)N1CCN(c2nc(OCC3CCCN3C)nc3c(F)c(-c4nc(N)cc(C)c4C(F)(F)F)c(Cl)cc23)C(C)C1
viability, T/C [25]: 102%
viability, T/C [26]: 101%
viability, T/C [27]: 97%
viability, T/C [28]: 85%
viability, T/C [29]: 95.5%
viability, T/C [30]: 88.1%
viability, T/C [31]: 101%
viability, T/C [32]: 95.7%
viability, T/C [33]: 93.7%
viability, T/C [34]: 99.7%
viability, T/C [35]: 89.2%
viability, T/C [36]: 87.5%
viability, T/C [37]: 102%
viability, T/C [38]: 100%
viability, T/C [39]: 89.8%
viability, T/C [40]: 103%
viability, T/C [41]: 97.8%
viability, T/C [42]: 96.2%
viability, T/C [43]: 98.4%
viability, T/C [44]: 99.8%
viability, T/C [45]: 96.8%
viability, T/C [46]: 84.7%
viability, T/C [47]: 99.6%
viability, T/C [48]: 87.8%
viability, T/C [49]: 110%
viability, T/C [50]: 97.6%
viability, T/C [51]: 102%
viability, T/C [52]: 95.7%
viability, T/C [53]: 94.1%
viability, T/C [54]: 92.4%
viability, T/C [55]: 91.1%
viability, T/C [56]: 105%
viability, T/C [57]: 105%
viability, T/C [58]: 104%
viability, T/C [59]: 94.9%
viability, T/C [60]: 85%

IC50 (second compound 0.00316 µM): 98.4 nM
IC50 (second compound 0.01 µM): 119 nM
IC50 (second compound 0.0316 µM): 86.1 nM
IC50 (second compound 0.1 µM): 74.8 nM
IC50 (second compound 0.316 µM): 97.2 nM
IC50 (second compound 1 µM): 96.3 nM
Structure (SMILES): CCc1c2c(nc3ccc(O)cc13)-c1cc3c(c(=O)n1C2)COC(=O)[C@]3(O)CC + C=CC(=O)N1CCN(c2nc(OCC3CCCN3C)nc3c(F)c(-c4nc(N)cc(C)c4C(F)(F)F)c(Cl)cc23)C(C)C1
viability, T/C [25]: 103%
viability, T/C [26]: 97.2%
viability, T/C [27]: 78%
viability, T/C [28]: 67.3%
viability, T/C [29]: 53.7%
viability, T/C [30]: 29.9%
viability, T/C [31]: 110%
viability, T/C [32]: 95.5%
viability, T/C [33]: 81.4%
viability, T/C [34]: 72%
viability, T/C [35]: 58.3%
viability, T/C [36]: 31.9%
viability, T/C [37]: 99.9%
viability, T/C [38]: 98.8%
viability, T/C [39]: 80.2%
viability, T/C [40]: 65.2%
viability, T/C [41]: 51.4%
viability, T/C [42]: 23.3%
viability, T/C [43]: 102%
viability, T/C [44]: 93.3%
viability, T/C [45]: 74.4%
viability, T/C [46]: 61.3%
viability, T/C [47]: 51%
viability, T/C [48]: 27.2%
viability, T/C [49]: 106%
viability, T/C [50]: 92.7%
viability, T/C [51]: 82.4%
viability, T/C [52]: 67%
viability, T/C [53]: 50.5%
viability, T/C [54]: 32.7%
viability, T/C [55]: 107%
viability, T/C [56]: 103%
viability, T/C [57]: 75.8%
viability, T/C [58]: 68.1%
viability, T/C [59]: 55.2%
viability, T/C [60]: 28.8%

IC50 (second compound 0.00316 µM): > 1000 nM
IC50 (second compound 0.01 µM): > 1000 nM
IC50 (second compound 0.0316 µM): > 1000 nM
IC50 (second compound 0.1 µM): > 1000 nM
IC50 (second compound 0.316 µM): > 1000 nM
IC50 (second compound 1 µM): > 1000 nM
Structure (SMILES): Nc1ccn(C2OC(CO)C(O)C2(F)F)c(=O)n1 (stereo not drawn) + C=CC(=O)N1CCN(c2nc(OCC3CCCN3C)nc3c(F)c(-c4nc(N)cc(C)c4C(F)(F)F)c(Cl)cc23)C(C)C1
viability, T/C (second compound 0.00316 µM, first compound 0.00316 µM): 106%
viability, T/C (second compound 0.00316 µM, first compound 0.01 µM): 90.6%
viability, T/C [1]: 82.7%
viability, T/C [2]: 79.4%
viability, T/C [3]: 60.9%
viability, T/C [4]: 75.8%
viability, T/C (second compound 0.01 µM, first compound 0.00316 µM): 94.3%
viability, T/C (second compound 0.01 µM, first compound 0.01 µM): 89.6%
viability, T/C [5]: 76.3%
viability, T/C [6]: 79.3%
viability, T/C [7]: 70%
viability, T/C [8]: 68.3%
viability, T/C (second compound 0.0316 µM, first compound 0.00316 µM): 104%
viability, T/C (second compound 0.0316 µM, first compound 0.01 µM): 87.1%
viability, T/C [9]: 78.2%
viability, T/C [10]: 71.6%
viability, T/C [11]: 76.9%
viability, T/C [12]: 68.4%
viability, T/C (second compound 0.1 µM, first compound 0.00316 µM): 87.4%
viability, T/C (second compound 0.1 µM, first compound 0.01 µM): 85.3%
viability, T/C [13]: 74%
viability, T/C [14]: 65.6%
viability, T/C [15]: 73.8%
viability, T/C [16]: 67.1%
viability, T/C (second compound 0.316 µM, first compound 0.00316 µM): 92.8%
viability, T/C (second compound 0.316 µM, first compound 0.01 µM): 95.9%
viability, T/C [17]: 75.5%
viability, T/C [18]: 74.8%
viability, T/C [19]: 72.1%
viability, T/C [20]: 67.3%
viability, T/C (second compound 1 µM, first compound 0.00316 µM): 97.2%
viability, T/C (second compound 1 µM, first compound 0.01 µM): 82.7%
viability, T/C [21]: 80.2%
viability, T/C [22]: 76.2%
viability, T/C [23]: 72%
viability, T/C [24]: 68.9%
